{"source": "patent US20250282802A1", "about": "“P[…] AND METHODS” (priority 2020, published 2025)", "key": {"[1]": {"system": "A-549 (human lung carcinoma)", "assay": "Cell culture cytotoxicity screening (Alamar Blue), A-549", "assay_type": "cell-based", "settings": "A549, A-549, Alamar Blue, 72 hours", "description": "(§1) FIG. 8. Cytotoxicity of pantaphos across various cancer cell lines. Assays were conducted as described (mBio. 2021 Feb. 2; 12(1):e03402-20), using the Alamar Blue method with 72-hour treatment using Raptinal ([…]) as Dead cell control; n=3. Cell seeding densities: CT26 (colon carcinoma) 2000 c/w; HOS (osteosarcoma) 2500 c/w; ES-2 (ovarian carcinoma), HCT-116 (colorectal carcinoma), A-549 (lung carcinoma), A-172 (glioblastoma), D54 (glioblastoma), U87 (glioblastoma), T98G (glioblastoma), SK-ML-28 (melanoma), MCF-7 (breast cancer), AM38 (glioblastoma) and MDA-MB-231 (breast cancer) 3000 c/w; U118MG (malignant glioma) 4000 c/w; HepG2 (liver cancer) 8000 c/w. c/w=cells per well. […]\n(§2) Cell culture cytotoxicity screening. The compounds were evaluated for their ability to kill cancer cell lines in culture, using HOS (osteosarcoma); ES-2 (ovarian cancer); HCT 116 (colon cancer); A549 (lung carcinoma); and A172 (glioma) cells. Human skin fibroblast cells (HFF-1) were also assessed. […] 72 hours post-treatment, cell viability was assessed using the Alamar Blue method (http://www.bio-rad-antibodies.com/measuring-cytotoxicity-proliferation-spectrophotometry-fluorescence-alamarBlue.html). […] Conversion of Alamar Blue was measured with a plate reader (SpectraMax M3; Molecular Devices) by fluorescence (excitation wavelength: 555 nm; emission wavelength: 585 nm; cutoff 570 nm; autogain). […]"}, "T98G (glioblastoma)": {"system": "T98G (glioblastoma)", "assay": "Cytotoxicity profiling (Alamar Blue), T98G", "assay_type": "cell-based, human", "description": "as §1, §2"}, "human cell lines": {"system": "human cell lines", "assay": "Cytotoxicity profiling against a panel of human cell lines", "assay_type": "cell-based", "settings": "human cell lines of Table 2, with the exception of ES-2; read-out: IC50 levels, range for each of the cell lines tested", "description": "Cell culture cytotoxicity screening. The compounds were evaluated for their ability to kill cancer cell lines in culture, using HOS (osteosarcoma); ES-2 (ovarian cancer); HCT 116 (colon cancer); A549 (lung carcinoma); and A172 (glioma) cells. Human skin fibroblast cells (HFF-1) were also assessed. Cells were seeded (3000 cells well^−1 for ES-2, HCT 116, A549 and A172; 4000 cells well^−1 for HFF-1 and 2500 cells well^−1 for HOS) in a 96-well plate and allowed to attach overnight. Cells were treated with pantaphos in water. The concentrations of the tested compounds were 5 nM to 100 μM (1% water final; 100 μl well^−1). Raptinal (50 μM) was used as a dead control. On each plate, five technical replicates per compound were performed. 72 hours post-treatment, cell viability was assessed using the Alamar Blue method (http://www.bio-rad-antibodies.com/measuring-cytotoxicity-proliferation-spectrophotometry-fluorescence-alamarBlue.html). Alamar Blue solution (10 μl of 440 μM resazurin in sterile 1×PBS) was added to each well, and the plate was incubated for 3-4 hrs. Conversion of Alamar Blue was measured with a plate reader (SpectraMax M3; Molecular Devices) by fluorescence (excitation wavelength: 555 nm; emission wavelength: 585 nm; cutoff 570 nm; autogain). Percentage death was determined by normalizing to water-treated cells and Raptinal-treated cells. […]"}, "[2]": {"system": "Saccharomyces cerevisiae X2180-1A", "assay": "Fungicidal bioassay (MIC), Saccharomyces cerevisiae", "assay_type": "cell-based", "settings": "for MIC: Saccharomyces cerevisiae, X21801A, 48 hrs growth, CLSI", "description": "Bacteria, plasmids and growth conditions. Bacterial strains, plasmids and primers used in this study are described in Table 3 and 4. General chemical and molecular biology reagents were purchased from Sigma-Aldrich or New England Biolabs. Phosphinothricin (glufosinate) was purchased from GoldBio (CAS #77182-82-2). Standard bacterial growth media were prepared as described (Current Protocols in Molecular Biology 2019, 125:e81, e82, e83). E. coli strains were typically grown at 37° C.; P. ananatis strains were typically grown at 30° C. Phosphonate induction media (PIM) was prepared as follows: 8.37 g/L MOPS, 0.72 g/L Tricine, 0.58 g/L NaCl, 0.51 g/L NH4Cl, 1.6 g/L KOH, 0.1 g/L MgCl2·6H2O, 0.05 g/L K2SO4, 0.2 g/L K2HIPO4 were dissolved H2O and steam sterilized for 20 min at 121° C. After cooling, 1× sterile trace element solution was added (1000× stock: 1.5 g/L nitrilotriacetic acid trisodium salt, 0.8 g/L Fe(NH4)2(SO4)2·7H2O, 0.2 g/L Na2SeO3, 0.1 g/L CoCl2·6H2O, 0.1 g/L MnSO4·H2O, 0.1 g/L Na2MoO4·2H2O, 0.1 g/L Na2WO4·2H2O, 0.1 g/L ZnSO4·7H2O, 0.1 g/L NiCl2·6H2O, 0.01 g/L H3BO3, 0.01 g/L CuSO4·5H2O) followed by addition of 1% (v/v) sterile glycerol and 50 μg/mL sterile kanamycin. For culturing of Candida and Saccharomyces strains, Rosewell Park Memorial Institute 1640 medium (RPMI; Sigma-Aldrich R6504) was used for liquid culturing and Sabouraud Dextrose Agar (SDA; Difco™ 210950) for solid plating unless otherwise specified. For Aspergillus strains, Rosewell Park Memorial Institute 1640 medium (RPMI) was used for liquid culturing and Potato Dextrose Agar (PDA; Difco™ 213400) was used for solid plating unless otherwise specified. YMM medium (6.7 g/L yeast nitrogen base without amino acids [BD Difco™ 291940], 20 g/L glucose, 1× trace element solution) was used as minimal media for fungal strains.\nFungicidal bioassays. […] Minimum Inhibitory Concentration (MIC) was determined visually by finding the concentration of compound at which there was no visual difference between that concentration and the uninoculated media control."}}, "note": "Read-outs that look alike come from different tables or passages of the source.", "data": [{"molecule": "O=C(O)/C=C(\\C(=O)O)C(O)P(=O)(O)O", "note": "(centres unmarked) [pantaphos, 2-(hydroxy(phosphono)methyl)maleate]", "values": [{"measurement": "IC50", "setting": "[1]", "value": "14.7 ± 0.61", "unit": "µM"}, {"measurement": "Emax", "setting": "[1]; read-out: Emax = percentage cell death (converted)", "value": 66, "unit": "%"}, {"measurement": "IC50", "setting": "T98G (glioblastoma); Homo sapiens, T98G, Alamar Blue, 72-hour treatment (Table 6)", "value": "> 100", "unit": "µM"}, {"measurement": "sensitivity of the cell line to pantaphos, in words", "setting": "T98G (glioblastoma); glioblastoma cell line printed as TG98", "value": "resistant"}, {"measurement": "IC50", "setting": "human cell lines", "value": "6 to 37", "unit": "µM"}, {"measurement": "MIC", "setting": "[2]; M9 minimal medium, read-out: MIC, Minimal medium", "value": "> 62.5", "unit": "µM"}, {"measurement": "MIC", "setting": "[2]; RPMI 1640 medium, read-out: MIC, Rich medium", "value": "> 125", "unit": "µM"}, {"measurement": "effect on the growth of fungi, in words", "setting": "[2]; rich or minimal media", "value": "no effect on the growth"}]}]}
